# What was measured:
# Assay type in all cases: functional
# [1] = tested on: Rattus norvegicus; assay: Antiinflammatory activity in Wister albino rat assessed as inhibition of carrageenan-induced paw edema at 50 mg/kg, po administered 30 mins before carrageenan challenge measured after 3 hrs relative to control
# [2] = tested on: Mus musculus; assay: Analgesic activity in albino mouse assessed as response latency time to pain stimulus at 25 mg/kg, po after 1 hr by hot plate method; design: unit not given here
# [3] = tested on: Mus musculus; assay: Analgesic activity in albino mouse assessed as response latency time to pain stimulus at 25 mg/kg, po after 3 hrs by hot plate method; design: unit not given here
# [4] = tested on: Staphylococcus aureus; assay: Antibacterial activity against Staphylococcus aureus after 24 hrs by disk diffusion method
# [5] = tested on: Staphylococcus aureus; assay: Antibacterial activity against Staphylococcus aureus after 24 hrs by broth dilution technique
# [6] = tested on: Escherichia coli; assay: Antibacterial activity against Escherichia coli after 24 hrs by disk diffusion method
# [7] = tested on: Escherichia coli; assay: Antibacterial activity against Escherichia coli after 24 hrs by broth dilution technique
# [8] = tested on: Pseudomonas aeruginosa; assay: Antibacterial activity against Pseudomonas aeruginosa after 24 hrs by disk diffusion method
# [9] = tested on: Pseudomonas aeruginosa; assay: Antibacterial activity against Pseudomonas aeruginosa after 24 hrs by broth dilution technique
# [10] = tested on: Klebsiella pneumoniae; assay: Antibacterial activity against Klebsiella pneumoniae after 24 hrs by disk diffusion method
# [11] = tested on: Klebsiella pneumoniae; assay: Antibacterial activity against Klebsiella pneumoniae after 24 hrs by broth dilution technique
# [12] = tested on: Streptococcus pyogenes; assay: Antibacterial activity against Streptococcus pyogenes after 24 hrs by disk diffusion method
# [13] = tested on: Streptococcus pyogenes; assay: Antibacterial activity against Streptococcus pyogenes after 24 hrs by broth dilution technique
# [14] = tested on: Candida albicans; assay: Antifungal activity against Candida albicans after 48 hrs by twofold broth dilution method
# [15] = tested on: Aspergillus niger; assay: Antifungal activity against Aspergillus niger after 3 to 4 days by agar diffusion method
# [16] = tested on: Aspergillus niger; assay: Antifungal activity against Aspergillus niger after 48 hrs by twofold broth dilution method
# [17] = tested on: Aspergillus fumigatus; assay: Antifungal activity against Aspergillus fumigatus after 3 to 4 days by agar diffusion method
# [18] = tested on: Aspergillus fumigatus; assay: Antifungal activity against Aspergillus fumigatus after 48 hrs by twofold broth dilution method
# [19] = tested on: Trichophyton mentagrophytes; assay: Antifungal activity against Trichophyton mentagrophytes after 3 to 4 days by agar diffusion method
# [20] = tested on: Trichophyton mentagrophytes; assay: Antifungal activity against Trichophyton mentagrophytes after 48 hrs by twofold broth dilution method
# [21] = tested on: Talaromyces marneffei; assay: Antifungal activity against Penicillium marneffei after 48 hrs by twofold broth dilution method
# [22] = tested on: Candida albicans; assay: Antifungal activity against Candida albicans after 3 to 4 days by agar diffusion method
# [23] = tested on: Talaromyces marneffei; assay: Antifungal activity against Penicillium marneffei after 3 to 4 days by agar diffusion method
# [24] = tested on: Rattus norvegicus; assay: Antiinflammatory activity in Wister albino rat assessed as inhibition carrageenan-induced paw edema at 2 mg/kg, po administered 30 mins before carrageenan challenge measured after 3 hrs relative to control
# [25] = tested on: Mus musculus; assay: Analgesic activity in albino mouse assessed as response latency time to pain stimulus at 5 mg/kg, ip after 1 hr by hot plate method; conditions: route intraperitoneal
# [26] = tested on: Mus musculus; assay: Analgesic activity in albino mouse assessed as response latency time to pain stimulus at 5 mg/kg, ip after 3 hrs by hot plate method; conditions: route intraperitoneal
Compound,inhibition in vivo at 50 mg/kg [1],Time [2],Time [3],Diameter of inhibition zone [4],MIC [5],Diameter of inhibition zone [6],MIC [7],Diameter of inhibition zone [8],MIC [9],Diameter of inhibition zone [10],MIC [11],Diameter of inhibition zone [12],MIC [13],MIC [14],Diameter of inhibition zone [15],MIC [16],Diameter of inhibition zone [17],MIC [18],MIC [20],MIC [21],other results
Cc1ccc(-c2csc3nc(-c4cc(F)c(Cl)cc4Cl)nn23)cc1,0%,8.2,8.4,15 mm,6.25 microg/cm3,13 mm,12.5 microg/cm3,14 mm,6.25 microg/cm3,15 mm,6.25 microg/cm3,14 mm,12.5 microg/cm3,>100 microg/cm3,11 mm,12.5 microg/cm3,16 mm,6.25 microg/cm3,25 microg/cm3,>100 microg/cm3,Diameter of inhibition zone [19]: 8 mm
Fc1ccc(-c2csc3nc(-c4cc(F)c(Cl)cc4Cl)nn23)cc1,48.8%,8.3,8.2,18 mm,12.5 microg/cm3,23 mm,6.25 microg/cm3,28 mm,6.25 microg/cm3,20 mm,6.25 microg/cm3,21 mm,6.25 microg/cm3,6.25 microg/cm3,21 mm,6.25 microg/cm3,29 mm,6.25 microg/cm3,6.25 microg/cm3,6.25 microg/cm3,Diameter of inhibition zone [22]: 19 mm; Diameter of inhibition zone [19]: 17 mm; Diameter of inhibition zone [23]: 21 mm
O=[N+]([O-])c1ccc(-c2csc3nc(-c4cc(F)c(Cl)cc4Cl)nn23)cc1,10.9%,11.2,10.9,12 mm,12.5 microg/cm3,15 mm,6.25 microg/cm3,15 mm,6.25 microg/cm3,11 mm,12.5 microg/cm3,12 mm,12.5 microg/cm3,6.25 microg/cm3,,>100 microg/cm3,17 mm,6.25 microg/cm3,25 microg/cm3,6.25 microg/cm3,Diameter of inhibition zone [22]: 16 mm; Diameter of inhibition zone [19]: 10 mm; Diameter of inhibition zone [23]: 18 mm
Fc1cc(-c2nc3scc(-c4cc(F)c(Cl)cc4Cl)n3n2)c(Cl)cc1Cl,59.4%,14.21,13.6,23 mm,6.25 microg/cm3,28 mm,6.25 microg/cm3,30 mm,6.25 microg/cm3,19 mm,6.25 microg/cm3,24 mm,6.25 microg/cm3,6.25 microg/cm3,22 mm,12.5 microg/cm3,20 mm,6.25 microg/cm3,6.25 microg/cm3,6.25 microg/cm3,Diameter of inhibition zone [22]: 18 mm; Diameter of inhibition zone [19]: 18 mm; Diameter of inhibition zone [23]: 23 mm
Fc1cc(-c2nc3scc(-c4ccc(Br)cc4)n3n2)c(Cl)cc1Cl,25%,14.8,13.9,21 mm,6.25 microg/cm3,24 mm,6.25 microg/cm3,29 mm,6.25 microg/cm3,19 mm,6.25 microg/cm3,25 mm,6.25 microg/cm3,12.5 microg/cm3,9 mm,25 microg/cm3,12 mm,12.5 microg/cm3,>100 microg/cm3,25 microg/cm3,Diameter of inhibition zone [22]: 14 mm; Diameter of inhibition zone [23]: 10 mm
COc1ccc(-c2csc3nc(-c4cc(F)c(Cl)cc4Cl)nn23)cc1,40.6%,11.1,11.96,21 mm,6.25 microg/cm3,25 mm,6.25 microg/cm3,30 mm,6.25 microg/cm3,19 mm,6.25 microg/cm3,23 mm,6.25 microg/cm3,6.25 microg/cm3,20 mm,6.25 microg/cm3,,>100 microg/cm3,12.5 microg/cm3,6.25 microg/cm3,Diameter of inhibition zone [22]: 17 mm; Diameter of inhibition zone [19]: 14 mm; Diameter of inhibition zone [23]: 17 mm
Fc1cc(-c2nc3scc(-c4ccc(Cl)cc4)n3n2)c(Cl)cc1Cl,42.2%,13.2,12.9,26 mm,6.25 microg/cm3,26 mm,6.25 microg/cm3,31 mm,6.25 microg/cm3,17 mm,6.25 microg/cm3,19 mm,6.25 microg/cm3,6.25 microg/cm3,24 mm,6.25 microg/cm3,19 mm,6.25 microg/cm3,6.25 microg/cm3,6.25 microg/cm3,Diameter of inhibition zone [22]: 20 mm; Diameter of inhibition zone [19]: 19 mm; Diameter of inhibition zone [23]: 19 mm
Fc1cc(-c2nc3scc(-c4ccc(Cl)cc4Cl)n3n2)c(Cl)cc1Cl,17.2%,8.96,9.6,14 mm,12.5 microg/cm3,11 mm,12.5 microg/cm3,13 mm,12.5 microg/cm3,13 mm,12.5 microg/cm3,15 mm,6.25 microg/cm3,25 microg/cm3,14 mm,12.5 microg/cm3,8 mm,25 microg/cm3,>100 microg/cm3,12.5 microg/cm3,Diameter of inhibition zone [22]: 10 mm; Diameter of inhibition zone [23]: 12 mm
C[C@@H]1[C@H](O)[C@@H](C)/C=C/C=C/C=C/C=C/C=C/C=C/C=C/[C@H](O[C@@H]2O[C@H](C)[C@@H](O)[C@H](N)[C@@H]2O)C[C@@H]2O[C@](O)(C[C@@H](O)C[C@@H](O)[C@H](O)CC[C@@H](O)C[C@@H](O)CC(=O)O[C@H]1C)C[C@H](O)[C@H]2C(=O)O [AMPHOTERICIN B],,,,,,,,,,,,,,6.25 microg/cm3,25 mm,12.5 microg/cm3,21 mm,6.25 microg/cm3,6.25 microg/cm3,6.25 microg/cm3,Diameter of inhibition zone [22]: 20 mm; Diameter of inhibition zone [19]: 19 mm; Diameter of inhibition zone [23]: 23 mm
O=C(O)c1cn(C2CC2)c2cc(N3CCNCC3)c(F)cc2c1=O [CIPROFLOXACIN],,,,23 mm,6.25 microg/cm3,29 mm,6.25 microg/cm3,32 mm,6.25 microg/cm3,21 mm,6.25 microg/cm3,25 mm,6.25 microg/cm3,,,,,,,,
COc1ccc2c(c1)c(CC(=O)O)c(C)n2C(=O)c1ccc(Cl)cc1 [INDOMETHACIN],,,,,,,,,,,,,,,,,,,,,inhibition in vivo at 2 mg/kg [24]: 62.9%
CCOC(=O)C1(c2ccccc2)CCN(C)CC1 [MEPERIDINE],,,,,,,,,,,,,,,,,,,,,Time [25]: 16.4 h; Time [26]: 14.3 h

# From ChEMBL document CHEMBL1153872, “Synthesis, analgesic, anti-inflammatory and antimicrobial studies of 2,4-dichloro-5-fluorophenyl containing thiazolotriazoles” (2009)
